The assay has as its target PDE10A. Nature of the assay: Phosphodiesterase assay (TR-FRET, LANCE cAMP kit). Particulars: PDE10A (BPS Bioscience) 200 pg/well, biotin-cAMP substrate, 60 min at room temperature. Type of assay: biochemical. On the procedure: The PDE assay is based on the homogenous time-resolved fluorescence resonance energy transfer (TR-FRET) technology (LANCE® from Perkin Elmer). […] When there is PDE activity, resulting in the degradation of the cyclic nucleotide, the complex is not formed and a decrease in signal is observed.
The phosphodiesterase assay was developed using the LANCE® cAMP kit (PerkinElmer). The assay buffer contained HBSS with 5 mM HEPES, 0.1% BSA, and 1.5 mM MgCl2, pH 7.4. PDE10A (BPS Bioscience) was used at 200 pg/well (with a specific activity of 3200 pmole/min/μg with assay conditions: 10 mM Tris-HCl, pH7.4, 10 mM MgCl2, 1 mM MnCl2, 200 μM cAMP, 2.5 kU 5′ nucleotidase, 37° C., 20 min). […] Chemical compounds were dissolved in DMSO (final concentration 2% (v/v)).
In a 384-well plate, 2 μL inhibitor and 3 μL PDE were added to the well, followed by the addition of 5 μl substrate biotinylated cAMP (1:5). After 60 min incubation at room temperature, 10 μL of assay detection mixture was added to the assay plate. After 1 h at room temperature, the signal was measured on EnVision™ (Perkin Elmer).

Each structure is given as a SMILES string. Structures can show the parent of a compound that is named as a salt. Where only a bound is given, the exact number is not on record here.

As a reminder, the IC50 is the concentration at which inhibition is half-maximal. Read a low IC50 as inhibition by little substance.

`CNc1nc2ccc(OC)cc2cc1Cc1c(O)nc(C)c2cc(OC)c(OC)cc12` [Compound 37, 6,7-Dimethoxy-4-((6-methoxy-2-(methylamino)quinolin-3-yl)methyl)-1-methyl-isoquinolin-3-ol dihydrochloride]: the IC50 turned out to be 6 nM.

In turn, `CCc1nc(O)c(Cc2cccc(-c3ccc(OC)cc3)c2)c2cc(OC)c(OC)cc12` [Compound 9, 1-ethyl-6,7-dimethoxy-4-((4′-methoxy-[1,1′-biphenyl]-3-yl)methyl)isoquinolin-3-ol hydrochloride] returned an IC50 of 10600 nM.

`CCNc1nc2ccc(OC)cc2cc1C(=O)c1c(O)nc(C)c2cc(OC)c(OC)cc12` [Compound 75, (2-(ethylamino)-6-methoxyquinolin-3-yl)(3-hydroxy-6,7-dimethoxy-1-methylisoquinolin-4-yl)methanone dihydrochloride] displayed an IC50 above 1000 nM.

For `CCc1nc(O)c(Cc2cc3cc(OC)ccc3nc2NCc2ccccc2)c2cc(OC)c(OC)cc12` [Compound 44, 4-((2-(Benzylamino)-6-methoxyquinolin-3-yl)methyl)-1-ethyl-6,7-dimethoxyisoquinolin-3-ol dihydrochloride], half-maximal inhibition (IC50) was put at 8 nM.

As for `CCc1nc(O)c(Cc2cc3cc(OCC4CC4)ccc3nc2NCCNC(C)=O)c2cc(OC)c(OC)cc12` [Compound 87, N-(2-((6-(cyclopropylmethoxy)-3-((1-ethyl-3-hydroxy-6,7-dimethoxyisoquinolin-4-yl)methyl)quinolin-2-yl)amino)ethyl)acetamide dihydrochloride], half-maximal inhibition (IC50) required 3.9 nM.

Molecule `COc1cc2c(C)nc(O)c(Cc3ccc4ncccc4c3)c2cc1OC` [Compound 24, 6,7-dimethoxy-1-methyl-4-(quinolin-6-ylmethyl)isoquinolin-3-ol dihydrochloride] yielded an IC50 of 86 nM.

Take `CCNc1nc2ccc(OC)cc2cc1Cc1c(O)nc(CC)c2cc(OC)c(OC)cc12` [Compound 40, 1-Ethyl-6,7-dimethoxy-4-((6-methoxy-2-(ethylamino)quinolin-3-yl)methyl)isoquinolin-3-ol dihydrochloride]: half-maximal inhibition (IC50) required 0.4 nM.

Take `CCCc1nc(O)c(Cc2cc3cc(OC)ccc3nc2NCCNC(C)=O)c2cc(OC)c(OC)cc12` [Compound 55, N-(2-((3-((3-hydroxy-6,7-dimethoxy-1-propylisoquinolin-4-yl)methyl)-6-methoxyquinolin-2-yl)amino)ethyl)acetamide dihydrochloride]: the IC50 turned out to be 4.4 nM.

As for `CCCc1nc(O)c(Cc2cc3cc(OC)ccc3nc2NCC(F)(F)F)c2cc(OC)c(OC)cc12` [Compound 54, 6,7-dimethoxy-4-((6-methoxy-2-((2,2,2-trifluoroethyl)amino)quinolin-3-yl)methyl)-1-propylisoquinolin-3-ol dihydrochloride], half-maximal inhibition (IC50) was put at 23 nM.

Molecule `COc1cc2c(C)nc(O)c(Cc3cnc4ccccc4c3)c2cc1OC` [Compound 26, 6,7-Dimethoxy-1-methyl-4-(quinolin-3-ylmethyl)isoquinolin-3-ol dihydrochloride] displayed an IC50 of 24 nM.

`CCNc1nc2ccc(OC)cc2cc1Cc1c(O)nc(COC)c2cc(OC)c(OC)cc12` [Compound 67, 4-((2-(ethylamino)-6-methoxyquinolin-3-yl)methyl)-6,7-dimethoxy-1-(methoxymethyl)isoquinolin-3-ol dihydrochloride] displayed an IC50 of 1.8 nM.

On to `CCc1nc(O)c(Cc2cc3cc(OC)ccc3nc2NCCNC(C)=O)c2cc(OC)c(OC)cc12` [Compound 69, N-(2-(3-((1-Ethyl-3-hydroxy-6,7-dimethoxyisoquinolin-4-yl)methyl)-6-methoxyquinolin-2-ylamino)ethyl)acetamide dihydrochloride], for which it took 1.5 nM to reach half-maximal inhibition (IC50).

Turning to `CNc1nc2cc3c(cc2cc1Cc1c(O)nc(C)c2cc(OC)c(OC)cc12)OCO3` [Compound 60, 6,7-dimethoxy-1-methyl-4-((6-(methylamino)-[1,3]dioxolo[4,5-g]quinolin-7-yl)methyl)isoquinolin-3-ol dihydrochloride], the IC50 came to 2.7 nM.

As for `CCOc1cccc2ncc(Cc3c(O)nc(C)c4cc(OC)c(OC)cc34)cc12` [Compound 28, 4-((5-Ethoxyquinolin-3-yl)methyl)-6,7-dimethoxy-1-methylisoquinolin-3-ol dihydrochloride], the IC50 was 6 nM.

Molecule `CCCc1nc(O)c(Cc2cc3cc4c(cc3nc2N(C)C)OCO4)c2cc(OC)c(OC)cc12` [Compound 63, 4-((6-(dimethylamino)-[1,3]dioxolo[4,5-g]quinolin-7-yl)methyl)-6,7-dimethoxy-1-propylisoquinolin-3-ol dihydrochloride] showed an IC50 of 560 nM.

The molecule `CCc1nc(O)c(Cc2cccc(-c3cccc(N)c3)c2)c2cc(OC)c(OC)cc12` [Compound 10, 4-((3′-amino-[1,1′-biphenyl]-3-yl)methyl)-1-ethyl-6,7-dimethoxyisoquinolin-3-ol dihydrochloride] showed an IC50 of 52 nM.

Regarding `CCCc1nc(O)c(Cc2ccc3oc4ccccc4c3c2)c2cc(OC)c(OC)cc12` [Compound 7, 4-(Dibenzo[b,d]furan-2-ylmethyl)-6,7-dimethoxy-1-propylisoquinolin-3-ol hydrochloride], half-maximal inhibition (IC50) required 0.5 nM.

Turning to `CCc1nc(O)c(Cc2cnc3ccccc3c2)c2cc(OC)c(OC)cc12` [Compound 78, 1-ethyl-6,7-dimethoxy-4-(quinolin-3-ylmethyl)isoquinolin-3-ol dihydrochloride], inhibition was half-maximal at 27 nM (IC50).

In turn, `CCCc1nc(O)c(Cc2cc3cc(OC)ccc3nc2C(F)(F)F)c2cc(OC)c(OC)cc12` [Compound 72, 6,7-Dimethoxy-4-((6-methoxy-2-(trifluoromethyl)quinolin-3-yl)methyl)-1-propylisoquinolin-3-ol hydrochloride] yielded an IC50 of 445 nM.

`CCNc1nc2ccc(OCC)cc2cc1Cc1c(O)nc(C(C)C)c2cc(OC)c(OC)cc12` [Compound 46, 4-((6-Ethoxy-2-(ethylamino)quinolin-3-yl)methyl)-1-isopropyl-6,7-dimethoxyisoquinolin-3-ol dihydrochloride] registered an IC50 of 29 nM.

In turn, `COc1cc2c(C)nc(OC)c(Cc3ccc4ccccc4c3)c2cc1OC` [Compound 18, 3,6,7-trimethoxy-1-methyl-4-(naphthalen-2-ylmethyl)isoquinoline hydrochloride] gave an IC50 of 1410 nM.

On to `CCCNc1nc2ccc(OC)cc2cc1Cc1c(O)nc(CC)c2cc(OC)c(OC)cc12` [Compound 42, 1-ethyl-6,7-dimethoxy-4-((6-methoxy-2-(propylamino)quinolin-3-yl)methyl)isoquinolin-3-ol dihydrochloride], for which half-maximal inhibition (IC50) required 0.5 nM.

Turning to `COc1cc2c(C)nc(O)c(Cc3cccc(-c4ccncc4)n3)c2cc1OC` [Compound 14, 4-([2,4′-bipyridin]-6-ylmethyl)-6,7-dimethoxy-1-methylisoquinolin-3-ol trihydrochloride], the IC50 was determined as 100 nM.

Molecule `COc1cc2c(C)nc(O)c(Cc3ccc4ccccc4c3)c2cc1OC` [Compound 17, 6,7-dimethoxy-1-methyl-4-(naphthalen-2-ylmethyl)isoquinolin-3-ol hydrochloride] showed an IC50 of 14 nM.

On to `CCc1nc(O)c(Cc2cc3cc(OC)ccc3nc2NC)c2cc(OC)c(OC)cc12` [Compound 39, 1-ethyl-6,7-dimethoxy-4-((6-methoxy-2-(methylamino)quinolin-3-yl)methyl)isoquinolin-3-ol dihydrochloride], for which the IC50 was found to be 1.6 nM.

`CCNc1nc2ccc(OCC)cc2cc1Cc1c(O)nc(CC)c2cc(OC)c(OC)cc12` [Compound 41, 4-((6-Ethoxy-2-(ethylamino)quinolin-3-yl)methyl)-1-ethyl-6,7-dimethoxyisoquinolin-3-ol dihydrochloride] came in with an IC50 of 5 nM.

In turn, `CCCc1nc(O)c(Cc2cc3cc(OC)ccc3nc2NC(C)C)c2cc(OC)c(OC)cc12` [Compound 53, 4-((2-(Isopropylamino)-6-methoxyquinolin-3-yl)methyl)-6,7-dimethoxy-1-propylisoquinolin-3-ol dihydrochloride] showed an IC50 of 0.8 nM.

With `CCc1nc(O)c(Cc2cccc(-c3ccccc3)c2)c2cc(OC)c(OC)cc12` [Compound 8, 4-([1,1′-Biphenyl]-3-ylmethyl)-1-ethyl-6,7-dimethoxyisoquinolin-3-ol hydrochloride], the IC50 was found to be 6710 nM.

As for `CCCc1nc(O)c(Cc2cnc3ccc(OC)cc3c2)c2cc(OC)c(OC)cc12` [Compound 84, 6,7-Dimethoxy-4-((6-methoxyquinolin-3-yl)methyl)-1-propylisoquinolin-3-ol dihydrochloride], the IC50 turned out to be 1.6 nM.

The molecule `CCNc1nc2ccc(OC)cc2cc1Cc1c(O)nc(CNC(C)=O)c2cc(OC)c(OC)cc12` [Compound 57, N-((4-((2-(ethylamino)-6-methoxyquinolin-3-yl)methyl)-3-hydroxy-6,7-dimethoxyisoquinolin-1-yl)methyl)acetamide dihydrochloride] registered an IC50 of 47 nM.

Take `CCCc1nc(O)c(Cc2cc3cc(OCC4CC4)ccc3nc2NCCNC(C)=O)c2cc(OC)c(OC)cc12` [Compound 83, N-(2-(6-(cyclopropylmethoxy)-3-((3-hydroxy-6,7-dimethoxy-1-propylisoquinolin-4-yl)methyl)quinolin-2-ylamino)ethyl)acetamide dihydrochloride]: the IC50 worked out at 10 nM.

In turn, `CCCc1nc(O)c(Cc2cnc3cc(OC)ccc3c2)c2cc(OC)c(OC)cc12` [Compound 32, 6,7-dimethoxy-4-((7-methoxyquinolin-3-yl)methyl)-1-propylisoquinolin-3-ol dihydrochloride] registered an IC50 of 4 nM.

The record behind these values is patent US8772316B2, “Substituted 6,7-dialkoxy-3-isoquinolinol derivatives as inhibitors of phosphodiesterase 10 (PDE10A)” (Allergan, Inc., priority 2011, dated 2014).
